Results: BindingDB's records for doi:10.1021/jm00017a010 (Sapienza University of Rome, 1995)

The compounds below were run against T1, Gag-Pol polyprotein [588-1027]/[588-1147] (Human immunodeficiency virus 1, UniProt P04585) (assay: HIV-1 RT Assay). Details: not given.
T1 construct: 588-1027; 588-1147
Description: The IC50 of reverse transcriptase is the concentration that inhibits 50% of recombinant HIV-1 RT RNA-directed DNA polymerase activity in vitro.

Q: Which IC50 does the source give for `CC1(C)C(=O)NC(SC2CCCC2)=N/C1=C/c1ccccc1` [(6E)-2-(cyclopentylsulfanyl)-5,5-dimethyl-6-(phenylmethylidene)-3,4,5,6-tetrahydropyrimidin-4-one] here?
A: > 10 µM

Q: `CC1(C)C(=O)NC(SC2CCCCC2)=N/C1=C/c1ccccc1` [S-DABO] was tested. Which IC50 did it give?
A: > 10 µM

Same assay, conditions: pH 7.8; 37 °C

Q: With `Cc1cccc(Cc2nc(S)nc(O)c2C)c1` [4-Hydroxy-2-mercapto-5-methyl-6-(3-methylbenzyl)pyrimidine] as the compound, how does the IC50 read?
A: > 10 µM

Q: Which IC50 does the source give for `Cc1cccc(Cc2cc(=O)[nH]c(=S)[nH]2)c1` [6-[(3-methylphenyl)methyl]-2-sulfanylidene-1,2,3,4-tetrahydropyrimidin-4-one] here?
A: > 10 µM

Q: `Cc1c(O)nc(S)nc1Cc1ccccc1` [6-benzyl-4-hydroxy-2-mercapto-5-methylpyrimidine] was tested. Which IC50 did it give?
A: > 10 µM

Q: `CC(C)Sc1nc(Cc2ccccc2)cc(=O)[nH]1` [S-DABO] was tested. Which IC50 did it give?
A: > 10 µM

Q: `CSc1nc(Cc2ccccc2)cc(=O)[nH]1` [S-DABO] was tested. Which IC50 did it give?
A: > 10 µM

Q: With `CSc1nc(O)cc(Cc2cccc(C)c2)n1` [S-DABO] as the compound, how does the IC50 read?
A: > 10 µM
